According to publication PMC11538426 (Scientific Reports, 2024):

Columns and labels:
monocytes = conditions: cited from earlier work
CD3+ T cells = conditions: cited from earlier work
[1] = test system: monocyte-derived DCs (moDCs); format: cell-based, human; conditions: rCD40L 5 µg/mL, 72 h

Substance | Differentiation of monocytes to CD14neg cells (monocytes) | Induction of IL-12p70 in isolated CD3+ T cells in absence of DC engagement (CD3+ T cells) | Differentiation of cells within moDC cultures to CD14neg DC phenotype ([1]; after 7 days GM-CSF/IL-4, Fig. 1a) | Proliferative capacity of moDCs (Ki67 expression) ([1]; Fig. 1b)
RSKAKNPLYR linked to R8 [IK14800] | does not promote differentiation of monocytes to CD14^neg cells | contributes to induction of IL-12p70 |  | 
rCD40L: recombinant CD40 ligand (BioLegend), used at 5 µg/mL |  |  | near-total differentiation of cells to the CD14^neg DC phenotype | not associated with a significant change in the proliferative capacity
